Where a name gives a salt, the structure may show the parent alone.
Target: T1, 5-HT3 (Homo sapiens, UniProt P46098)
T1 sequence (P46098 24-478): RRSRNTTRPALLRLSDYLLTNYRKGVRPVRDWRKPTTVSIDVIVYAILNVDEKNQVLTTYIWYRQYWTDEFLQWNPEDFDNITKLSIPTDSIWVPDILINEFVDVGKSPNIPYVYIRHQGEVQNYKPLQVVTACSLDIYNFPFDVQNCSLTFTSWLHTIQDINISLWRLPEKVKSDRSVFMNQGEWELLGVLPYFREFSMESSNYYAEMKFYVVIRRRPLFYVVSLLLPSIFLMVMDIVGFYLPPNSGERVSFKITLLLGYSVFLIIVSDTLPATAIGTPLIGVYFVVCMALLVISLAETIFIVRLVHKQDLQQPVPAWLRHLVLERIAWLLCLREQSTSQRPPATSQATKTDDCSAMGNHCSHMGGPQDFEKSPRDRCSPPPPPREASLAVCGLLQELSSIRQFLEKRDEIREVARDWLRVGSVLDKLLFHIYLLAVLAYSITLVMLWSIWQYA
Experiment: Compound affinity for the human 5-HT3 receptor (Assay B), SPA radioligand binding with [9-methyl-3H]BRL-43694
Design: purchased Perkin Elmer
Conditions: Assay B (method B unless otherwise annotated); read-out: 5-HT3 Ki
Method: Compound Affinity for the human 5-HT3 Receptor (Assay B)
The relative affinity of the various compounds for the human 5-HT3 receptor was measured in a radioligand binding assay, using a scintillation proximity assay (SPA) format. Test compounds were dissolved to 10 mM in 100% DMSO, then serially diluted at 10× assay concentrations in 100% DMSO in 96-well polypropylene plates and further diluted to 4× assay concentrations with the assay buffer. […] Binding reactions were set up in wells of PicoPlates-96 (Perkin Elmer) by adding consecutively 50 μL of each competing compound or buffer, SPA beads, the radioligand and 5-HT3 receptor membranes. After 60-min incubation at room temperature on a Nutator mixer, plates were centrifuged for 15 min at 1,500 rpm, followed by incubation in the dark for 30 min. Radioactivity was counted in the TopCount microplate counter (Perkin Elmer) for 5 min. […] Specific binding was determined by subtracting nonspecific binding from total binding. All experiments were performed in duplicate using ten concentrations of a competing ligand, with ondansetron included as a control in every run. IC50 values were determined from specific binding data using XLfit4.1 curve fitting software from IDBS Ltd. Ki values were then calculated from the Cheng-Prusoff equation.

Row | Compound | Ki [nM]
1 | C[C@H]1CN(S(C)(=O)=O)C[C@H](C)N1c1nc2c(C(=O)NC3CC4CCCC(C3)N4C)cccc2o1 (stereo partly drawn) [Example 131, Endo-N-(9-methyl-9-azabicyclo[3.3.1]nonan-3-yl)-2-((2S,6S-2,6-dimethyl-4-(methylsulfonyl)piperazin-1-yl)benzoxazole-4-carboxamide Hydrochloride] | 1
2 | CCNc1nc2c(C(=O)N[C@H]3C[C@H]4CCC[C@@H](C3)N4C)cccc2o1 [Example 105, Hydrochloride] | 3.3
3 | CN1[C@@H]2CCC[C@H]1C[C@@H](NC(=O)c1cc(Cl)cc3oc(N)nc13)C2 [Example 111, Endo-2-amino-6-chloro-N-(9-Methyl-9-azabicyclo[3.3.1]nonan-3-yl)benzoxazole-4-carboxamide Hydrochloride] | 2
4 | CN1[C@@H]2CCC[C@H]1C[C@@H](NC(=O)c1cccc3oc(N4CCC5(CC4)OCCO5)nc13)C2 [Example 91, Endo-N-(9-Methyl-9-azabicyclo[3.3.1]nonan-3-yl)-2-(1,4-dioxa-8-azaspiro[4.5]decan-8-yl)benzoxazole-4-carboxamide Hydrochloride] | 14.5
5 | O=C(NC1CN2CCC1CC2)c1cccc2oc(N3CCOCC3c3ccccc3)nc12 [Example 20, (S)—N-(quinuclidine-8-yl)-2-(3-phenylmorpholino)benzoxazole-4-carboxamide Hydrochloride] | 34.4
6 | CCOC(=O)N1C[C@H](C)N(c2nc3c(C(=O)NC4CC5CCCC(C4)N5C)cccc3o2)[C@@H](C)C1 (stereo partly drawn) [Example 144, Endo-N-(9-methyl-9-azabicyclo[3.3.1]nonan-3-yl)-2-((2S,6S)-4-(ethoxycarbonyl)-2,6-dimethylpiperazin-1-yl)benzoxazole-4-carboxamide Hydrochloride] | 1
7 | C[C@H]1CN(C(=O)C2CCCCC2)C[C@H](C)N1c1nc2c(C(=O)NC3CC4CCCC(C3)N4C)cccc2o1 (stereo partly drawn) [Example 132, Endo-N-(9-methyl-9-azabicyclo[3.3.1]nonan-3-yl)-2-((2S,6S)-4-(cyclohexanecarbonyl)-2,6-dimethylpiperazin-1-yl)benzoxazole-4-carboxamide Hydrochloride] | 1.9
8 | CN1CCCN(c2nc3c(C(=O)NC4CN5CCC4CC5)cccc3o2)CC1 [Example 12, (S)—N-(quinuclidine-8-yl)-2-(4-methyl-1,4-diazepam-1-yl)benzoxazole-4-carboxamide Dihydrochloride] | 317
9 | C[C@H]1CNC[C@H](C)N1c1nc2c(C(=O)NC3CC4CCCC(C3)N4C)cccc2o1 (stereo partly drawn) [Example 73, Endo-N-(9-Methyl-9-azabicyclo[3.3.1]nonan-3-yl)-2-((2S,6S)-2,6-dimethylpiperazin-1-yl)benzoxazole-4-carboxamide Hydrochloride] | 2.2
10 | C[C@@H]1CNCCN1c1nc2c(C(=O)N[C@H]3C[C@H]4CCC[C@@H](C3)N4C)cccc2o1 [Example 41b, Endo-N-(9-Methyl-9-azabicyclo[3.3.1]nonan-3-yl)-2-[(R)-2-methylpiperazin-1-yl]benzoxazole-4-carboxamide Hydrochloride] | 125
11 | C[C@@H]1CN(c2nc3c(C(=O)NC4CC5CCCC(C4)N5C)cccc3o2)[C@@H](C)CN1 (relative stereo) [Example 60, Endo N-(9-Methyl-9-azabicyclo[3.3.1]nonan-3-yl)-2-((2S*,5R*)-2,5-dimethylpiperazin-1-yl)benzoxazole-4-carboxamide Hydrochloride] | 10.5
12 | C[C@H]1CN(Cc2ccccc2)C(=O)[C@H](C)N1c1nc2c(C(=O)NC3CC4CCCC(C3)N4C)cccc2o1 (stereo partly drawn) [Example 97, Endo-N-(9-Methyl-9-azabicyclo[3.3.1]nonan-3-yl)-2-((2S,6S)-4-benzyl-2,6-dimethyl-3-oxopiperazine-1-yl)benzoxazole-4-carboxamide Hydrochloride] | 0.4
13 | CC(C)[C@H]1CN(c2nc3c(C(=O)NC4CC5CCCC(C4)N5C)cccc3o2)CCN1 (stereo partly drawn) [Example 78, Hydrochloride] | 25.8
14 | COc1ccc(Nc2nc3c(C(=O)N[C@H]4C[C@H]5CCC[C@@H](C4)N5C)cccc3o2)cc1 [Example 59, Endo-N-(9-methyl-9-azabicyclo[3.3.1]nonan-3-yl)-2-(4-methoxyphenylamino)benzoxazole-4-carboxamide Hydrochloride] | 7.6
15 | Endo-N-(9-Methyl-9-azabicyclo[3.3.1]nonan-3-yl)-2-((3aS,6aS)-hexahydropyrrolo[3,4-b]pyrrol-5(1H)-yl)benzoxazole-4-carboxamide Hydrochloride [Example 46] | 284
16 | CC(C)N(C)c1nc2c(C(=O)N[C@@H]3CN4CCC3CC4)cccc2o1 [Example 85, (S)—N-(quinuclidine-8-yl)-2-(isopropyl(methyl)amino)benzoxazole-4-carboxamide Hydrochloride] | 28.9
17 | CC1CN(c2nc3c(C(=O)N[C@H]4C[C@H]5CCC[C@@H](C4)N5C)cccc3o2)CCN1 (stereo partly drawn) [Example 95, Endo-N-(9-Methyl-9-azabicyclo[3.3.1]nonan-3-yl)-2-(3-methylpiperazin-1-yl)benzoxazole-4-carboxamide Hydrochloride] | 52.4
18 | C[C@H]1CN(Cc2ccccc2)C(=O)[C@H](C)N1c1nc2c(C(=O)N[C@@H]3CN4CCC3CC4)cccc2o1 [Example 142, (S)—N-(quinuclidine-8-yl) 2-((2S,6S)-4-benzyl-2,6-dimethyl-3-oxopiperazine-1-yl)benzoxazole-4-carboxamide Hydrochloride] | 11.5
19 | Cc1cc(C(=O)N[C@H]2C[C@H]3CCC[C@@H](C2)N3C)c2nc(N)oc2c1 [Example 129, Endo-2-amino-6-methyl-N-(9-Methyl-9-azabicyclo[3.3.1]nonan-3-yl)benzoxazole-4-carboxamide Hydrochloride] | 10.7
20 | CN1[C@@H]2CCC[C@H]1C[C@@H](NC(=O)c1cccc3oc(N4CCNCC4)nc13)C2 [Example 21, Endo-N-(9-Methyl-9-azabicyclo[3.3.1]non-3-yl)-2-(piperazin-1-yl)benzoxazole-4-carboxamide Dihydrochloride] | 74.6
21 | CN(C)c1nc2c(C(=O)N[C@@H]3CN4CCC3CC4)cc(Cl)cc2o1 [Example 108, (S)—N-(quinuclidine-8-yl)-6-chloro-2-(dimethylamino)benzoxazole-4-carboxamide Hydrochloride] | 14.4
22 | CCN(CC)c1nc2c(C(=O)N[C@@H]3CN4CCC3CC4)cccc2o1 [Example 115, (S)—N-(quinuclidine-8-yl)-2-diethylaminobenzoxazole-4-carboxamide Hydrochloride] | 4.8
23 | C[C@H]1C(=O)NCCN1c1nc2c(C(=O)NC3CC4CCCC(C3)N4C)cccc2o1 (stereo partly drawn) [Example 98, Endo-N-(9-Methyl-9-azabicyclo[3.3.1]nonan-3-yl)-2-((S)-2-methyl-3-oxopiperazine-1-yl)benzoxazole-4-carboxamide Hydrochloride] | 14.6
24 | CC(O)CCNc1nc2c(C(=O)N[C@H]3C[C@H]4CCC[C@@H](C3)N4C)cccc2o1 (stereo partly drawn) [Example 61, Endo-N-(9-methyl-9-azabicyclo[3.3.1]nonan-3-yl)-2-(3-hydroxybutylamino)benzoxazole-4-carboxamide Hydrochloride] | 19.9
25 | CN1[C@@H]2CCC[C@H]1C[C@@H](NC(=O)c1cccc3oc(=O)[nH]c13)C2 [Example 56, Endo-N-(9-Methyl-9-azabicyclo[3.3.1]nonan-3-yl)-2-oxo-2,3-dihydrobenzoxazole-4-carboxamide Hydrochloride] | 72
26 | C[C@H]1CN(C(=O)c2ccccc2)C[C@H](C)N1c1nc2c(C(=O)NC3CC4CCCC(C3)N4C)cccc2o1 (stereo partly drawn) [Example 117, Endo-N-(9-methyl-9-azabicyclo[3.3.1]nonan-3-yl)-2-((2S,6S)-4-benzoyl-2,6-dimethylpiperazin-1-yl)benzoxazole-4-carboxamide Hydrochloride] | 2.3
27 | C[C@H]1CN(C)CCN1c1nc2c(C(=O)NC3CC4CCCC(C3)N4C)cc(Cl)cc2o1 (stereo partly drawn) [Example 63, Endo-N-(9-methyl-9-azabicyclo[3.3.1]nonan-3-yl)-6-chloro-2-((S-2,4-dimethylpiperazin-1-yl)benzoxazole-4-carboxamide Hydrochloride] | 16.1
28 | CCNc1nc2c(C(=O)NC3CN4CCC3CC4)cccc2o1 [Example 104, (S)—N-(Quinulidin-8-yl)-2-ethylaminobenzoxazole-4-carboxamide Hydrochloride] | 13.5
29 | CCN(C)c1nc2c(C(=O)N[C@@H]3CN4CCC3CC4)cccc2o1 [Example 83, (S)—N-(quinuclidine-8-yl)-2-(ethyl(methyl)amino)benzoxazole-4-carboxamide Hydrochloride] | 6.8
30 | CC(C)[C@@H]1COCCN1c1nc2c(C(=O)NC3CC4CCCC(C3)N4C)cccc2o1 (stereo partly drawn) [Example 152, Endo-N-(9-Methyl-9-azabicyclo[3.3.1]nonan-3-yl)-2-((R)-3-isopropylmorpholino)benzoxazole-4-carboxamide Hydrochloride] | 75

Source: patent publication US7863271B2, “2-aminobenzoxazole carboxamides as 5HT3 modulators” (Albany Molecular Research, Inc., priority 2006, dated 2011)
